Results as given in patent US20050090522A1 (priority 2001, published 2005).
Read-outs that look alike come from different tables or passages of the source.

System: HIV-1
Experiment: HIV-1 single-round infectious luciferase reporter virus (pseudotype) assay in HeLa CD4 CCR5 cells
Format: cell-based
Method in brief: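 Reporter pseudovirus produced in 293 cells infected HeLa cells expressing CD4/CCR5 at MOI ~0.01, with compound present at <10 μM final. Infection was quantified as luciferase luminescence after 72 h.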

[1] = Human immunodeficiency virus 1, HeLa-CD4/CCR5, read-out: EC50 Group from Table 1, Table 2-1, HeLa CD4 CCR5 cells, single-round luciferase reporter virus
[2] = Human immunodeficiency virus 1, HeLa-CD4/CCR5, read-out: EC50 Group from TABLE 1, HeLa CD4 CCR5 cells, single-round infectious luciferase reporter virus

| SMILES | EC50 [1] | EC50 [2] |
| --- | --- | --- |
| COc1cnc(-n2nccc2N)c2[nH]cc(C(=O)C(=O)N3CCN(C(=O)c4ccccc4)[C@H](C)C3)c12 [Example 254, (R)-1-benzoyl-2-methyl-4-[(4-methoxy-7-(5-amino-pyrazol-1-yl)-6-azaindol-3-yl)-oxoacetyl]piperazine] | < 1 µM |  |
| COc1cnc(-n2ccc(O)n2)c2[nH]cc(C(=O)C(=O)N3CCN(C(=O)c4ccccc4)[C@H](C)C3)c12 [Example 257, (R)-1-benzoyl-2-methyl-4-[(4-methoxy-7-(3-hydroxylpyrazol-1-yl)-6-azaindol-3-yl)-oxoacetyl]piperazine] | < 1 µM |  |
| COc1cnc(-n2ccc(C(C)=O)n2)c2[nH]cc(C(=O)C(=O)N3CCN(C(=O)c4ccccc4)[C@H](C)C3)c12 [Example 259, (R)-1-benzoyl-2-methyl-4-[(4-methoxy-7-(3-methylcarbonyl-pyrazol-1-yl)-6-azaindol-3-yl)-oxoacetyl]piperazine] | < 1 µM |  |
| COc1cnc(-n2ccc(-c3ccccc3)n2)c2[nH]cc(C(=O)C(=O)N3CCN(C(=O)c4ccccc4)[C@H](C)C3)c12 [Example 260, (R)-1-benzoyl-2-methyl-4-[(4-methoxy-7-(3-phenyl-pyrazol-1-yl)-6-azaindol-3-yl)-oxoacetyl]piperazine] | < 1 µM |  |
| COc1cnc(-n2cnc(NCc3cccnc3)n2)c2[nH]cc(C(=O)C(=O)N3CCN(C(=O)c4ccccc4)[C@H](C)C3)c12 [Example 261, (R)-1-benzoyl-2-methyl-4-[(4-methoxy-7-(3-(3-pyridinemethylamino)-1,2,4-triazol-1-yl)-6-azaindol-3-yl)-oxoacetyl]piperazine] | < 1 µM |  |
| COc1cnc(-n2ccc(NC(C)=O)n2)c2[nH]cc(C(=O)C(=O)N3CCN(C(=O)c4ccccc4)[C@H](C)C3)c12 [Example 262, (R)-1-benzoyl-2-methyl-4-[(4-methoxy-7-(3-acetylamino-pyrazol-1-yl)-6-azaindol-3-yl)-oxoacetyl]piperazine] | < 1 µM |  |
| COc1cnc(-n2ccc(-c3ccc(C)nc3)n2)c2[nH]cc(C(=O)C(=O)N3CCN(C(=O)c4ccccc4)[C@H](C)C3)c12 [Example 263, (R)-1-benzoyl-2-methyl-4-[(4-methoxy-7-(3-(2-methylpyridin-5-yl)pyrazol-1-yl)-6-azaindol-3-yl)-oxoacetyl]piperazine] | < 1 µM |  |
| COc1cnc(-n2ccc(-c3ccc(C)nc3)n2)c2[nH]cc(C(=O)C(=O)N3CCN(C(=O)c4ccccc4)CC3)c12 [Example 264, 1-benzoyl-4-[(4-methoxy-7-(3-(2-methylpyridin-5-yl)pyrazol-1-yl)-6-azaindol-3-yl)-oxoacetyl]piperazine] |  | < 1 µM |
| COc1cnc(-n2ccc(C(C)n3cncn3)n2)c2[nH]cc(C(=O)C(=O)N3CCN(C(=O)c4ccccc4)[C@H](C)C3)c12 (some centres unmarked) [Example 265] | < 1 µM |  |
| COc1cnc(-c2cnc(N)cn2)c2[nH]cc(C(=O)C(=O)N3CCN(C(=O)c4ccccn4)[C@H](C)C3)c12 [Example 267] | < 1 µM |  |
| COc1cnc(-c2ccc(S(C)(=O)=O)cc2)c2[nH]cc(C(=O)C(=O)N3CCN(C(=O)c4ccccn4)[C@H](C)C3)c12 [Example 268] | < 1 µM |  |
| COc1cnc(-c2cnccn2)c2[nH]cc(C(=O)C(=O)N3CCN(C(=O)c4cccnc4)[C@H](C)C3)c12 [Example 270] | < 1 µM |  |
| COc1cnc(-c2cnc(O)cn2)c2[nH]cc(C(=O)C(=O)N3CCN(C(=O)c4ccccc4)[C@H](C)C3)c12 [Example 271] | < 1 µM |  |
| COc1cnc(-c2cnc(O)cn2)c2[nH]cc(C(=O)C(=O)N3CCN(C(=O)c4ccccn4)[C@H](C)C3)c12 [Example 272] | < 1 µM |  |
| COc1cnc(-n2ccc(CC(C)O)n2)c2[nH]cc(C(=O)C(=O)N3CCN(C(=O)c4ccccc4)CC3)c12 (centres unmarked) [Example 277, 1-benzoyl-4-[(4-methoxy-7-(3-(2-hydroxylpropyl)-pyrazol-1-yl)-6-azaindol-3-yl)-oxoacetyl]piperazine] |  | < 1 µM |
| COc1cnc(-n2ccc(C3=CCCCC3)n2)c2[nH]cc(C(=O)C(=O)N3CCN(C(=O)c4ccccc4)CC3)c12 [Example 278, 1-benzoyl-4-[(4-methoxy-7-(3-(cyclohexen-1-yl)-pyrazol-1-yl)-6-azaindol-3-yl)-oxoacetyl]piperazine] |  | < 1 µM |
| COc1cnc(-n2ccc(CCCC#N)n2)c2[nH]cc(C(=O)C(=O)N3CCN(C(=O)c4ccccc4)CC3)c12 [Example 279, 1-benzoyl-4-[(4-methoxy-7-(3-(3-cyano-propan-1-yl)-pyrazol-1-yl)-6-azaindol-3-yl)-oxoacetyl]piperazine] |  | < 1 µM |
| COc1cnc(-n2ccc(CN3CCS(=O)(=O)CC3)n2)c2[nH]cc(C(=O)C(=O)N3CCN(C(=O)c4ccccc4)CC3)c12 [Example 280, 1-benzoyl-4-[(4-methoxy-7-(3-(1,1-dioxo-thiomorpholin-4-yl)methyl-pyrazol-1-yl)-6-azaindol-3-yl)-oxoacetyl]piperazine] |  | < 1 µM |

| SMILES | EC50 [1] | EC50 [2] |
| --- | --- | --- |
| COc1cnc(-n2ccc(CC(C)C)n2)c2[nH]cc(C(=O)C(=O)N3CCN(C(=O)c4ccccc4)CC3)c12 [Example 281, 1-benzoyl-4-[(4-methoxy-7-(3-isobutyl-pyrazol-1-yl)-6-azaindol-3-yl)-oxoacetyl]piperazine] |  | < 1 µM |
| COc1cnc(-n2ccc(C3(O)CCCC3)n2)c2[nH]cc(C(=O)C(=O)N3CCN(C(=O)c4ccccc4)CC3)c12 [Example 282, 1-benzoyl-4-[(4-methoxy-7-(3-(1-hydroxy-cyclopentyl)-pyrazol-1-yl)-6-azaindol-3-yl)-oxoacetyl]piperazine] |  | < 1 µM |
| CNCc1ccn(-c2ncc(OC)c3c(C(=O)C(=O)N4CCN(C(=O)c5ccccc5)CC4)c[nH]c23)n1 [Example 283, 1-benzoyl-4-[(4-methoxy-7-(3-methylaminomethyl-pyrazol-1-yl)-6-azaindol-3-yl)-oxoacetyl]piperazine] |  | < 1 µM |
| COc1cnc(-n2ccc(C(O)C(C)C)n2)c2[nH]cc(C(=O)C(=O)N3CCN(C(=O)c4ccccc4)CC3)c12 (centres unmarked) [Example 284, 1-benzoyl-4-[(4-methoxy-7-(3-(1-hydroxy-2-methyl-propyl)-pyrazol-1-yl)-6-azaindol-3-yl)-oxoacetyl]piperazine] |  | < 1 µM |
| CCOC(=O)c1ccc(OCc2ccn(-c3ncc(OC)c4c(C(=O)C(=O)N5CCN(C(=O)c6ccccc6)CC5)c[nH]c34)n2)cc1 [Example 285, 1-benzoyl-4-[(4-methoxy-7-(3-(4-ethoxycarbonyl-phenyl)oxymethyl-pyrazol-1-yl)-6-azaindol-3-yl)-oxoacetyl]piperazine] |  | < 1 µM |
| COc1cnc(-n2ccc(S(=O)(=O)c3ccc(C)cc3)n2)c2[nH]cc(C(=O)C(=O)N3CCN(C(=O)c4ccccc4)CC3)c12 [Example 286, 1-benzoyl-4-[(4-methoxy-7-(3-(toluene-4-sulfonyl)-pyrazol-1-yl)-6-azaindol-3-yl)-oxoacetyl]piperazine] |  | < 1 µM |
| COc1cnc(-n2ccc(-c3cccc(C(F)(F)F)c3)n2)c2[nH]cc(C(=O)C(=O)N3CCN(C(=O)c4ccccc4)CC3)c12 [Example 287, 1-benzoyl-4-[(4-methoxy-7-(3-(3-trifluoromethyl-phenyl)-pyrazol-1-yl)-6-azaindol-3-yl)-oxoacetyl]piperazine] |  | < 1 µM |
| COc1cnc(-n2ccc(-c3ccc(C(F)(F)F)cc3)n2)c2[nH]cc(C(=O)C(=O)N3CCN(C(=O)c4ccccc4)CC3)c12 [Example 288, 1-benzoyl-4-[(4-methoxy-7-(3-(4-trifluoromethyl-phenyl)-pyrazol-1-yl)-6-azaindol-3-yl)-oxoacetyl]piperazine] |  | < 1 µM |
| CCCSc1ncn(-c2ncc(OC)c3c(C(=O)C(=O)N4CCN(C(=O)c5ccccc5)CC4)c[nH]c23)n1 [Example 289, 1-benzoyl-4-[(4-methoxy-7-(3-propylsulfanyl-[1,2,4]triazol-1-yl)-6-azaindol-3-yl)-oxoacetyl]piperazine] |  | < 1 µM |
| CCCS(=O)(=O)c1ncn(-c2ncc(OC)c3c(C(=O)C(=O)N4CCN(C(=O)c5ccccc5)CC4)c[nH]c23)n1 [Example 290, 1-benzoyl-4-[(4-methoxy-7-(3-(propane-1-sulfonyl)-[1,2,4]triazol-1-yl)-6-azaindol-3-yl)-oxoacetyl]piperazine] |  | < 1 µM |
| COc1ncn(-c2ncc(OC)c3c(C(=O)C(=O)N4CCN(C(=O)c5ccccc5)CC4)c[nH]c23)n1 [Example 291, 1-benzoyl-4-[(4-methoxy-7-(3-methoxy-[1,2,4]triazol-1-yl)-6-azaindol-3-yl)-oxoacetyl]piperazine] |  | < 1 µM |
| COc1cnc(-n2ccc(-c3ccc(C(=O)O)cc3)n2)c2[nH]cc(C(=O)C(=O)N3CCN(C(=O)c4ccccc4)CC3)c12 [Example 292, 1-benzoyl-4-[(4-methoxy-7-(3-(4-hydroxylcarbonylphenyl)-pyrazol-1-yl)-6-azaindol-3-yl)-oxoacetyl]piperazine] |  | < 1 µM |
| COC(=O)c1ccc(-c2ccn(-c3ncc(OC)c4c(C(=O)C(=O)N5CCN(C(=O)c6ccccc6)CC5)c[nH]c34)n2)cc1 [Example 293, 1-benzoyl-4-[(4-methoxy-7-(3-(4-methoxycarbonylphenyl)-pyrazol-1-yl)-6-azaindol-3-yl)-oxoacetyl]piperazine] |  | < 1 µM |
| COc1cnc(-n2ccc(-c3cccc(C(=O)O)c3)n2)c2[nH]cc(C(=O)C(=O)N3CCN(C(=O)c4ccccc4)CC3)c12 [Example 294, 1-benzoyl-4-[(4-methoxy-7-(3-(3-hydroxylcarbonylphenyl)-pyrazol-1-yl)-6-azaindol-3-yl)-oxoacetyl]piperazine] |  | < 1 µM |
| CNc1nc(-c2ncc(F)c3c(C(=O)C(=O)N4CCN(C(=O)c5ccccc5)CC4)c[nH]c23)no1 [Example 298] |  | < 1 µM |
| CCOC(=O)c1cc(C)nn1-c1ncc(F)c2c(C(=O)C(=O)N3CCN(C(=O)c4ccccc4)CC3)c[nH]c12 [Example 311] |  | < 1 µM |
| COc1cnc(-n2ncnc2C)c2[nH]cc(C(=O)C(=O)N3CCN(C(=O)c4ccccc4)CC3)c12 [Example 319] |  | < 1 µM |
